According to patent publication US10919885B2, “Compounds and uses thereof” (Yumanity Therapeutics, Inc., priority 2018, dated 2021):

Assays:
[1] = target: human SCD1 (Homo sapiens (Human), UniProt O00767); assay: Yeast growth assay, strain expressing human SCD1 as the sole desaturase (reduced growth as surrogate for SCD inhibition); assay type: cell-based; conditions: yeast with OLE1 deleted expressing human SCD1 from a plasmid; growth read as OD600 after 40 h at 30° C.; top drug concentration 33.3 μM
Procedure, shortened: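 Human SCD1 or SCD5 expressed from a plasmid in OLE1-deleted yeast as the sole desaturase. Cells washed free of Tween and fatty acids, grown with compound in SD-Ura glucose medium 40 h at 30 °C; growth measured as OD600, reduced growth taken as SCD inhibition.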

[2] = target: human SCD5 (Homo sapiens (Human), UniProt Q86SK9); assay: Yeast growth assay, strain expressing human SCD5 as the sole desaturase (reduced growth as surrogate for SCD inhibition); assay type: cell-based; conditions: yeast with OLE1 deleted expressing human SCD5 from a plasmid; growth read as OD600 after 40 h at 30° C.; top drug concentration 33.3 μM
Description: Strains expressing SCD1 or SCD5 as the sole desaturase, the human SCD1 and SCD5 genes were used to evaluate inhibition of SCD1/SCD5 using reduced growth as a surrogate for SCD inhibition. These yeast strains express human SCD1 or SCD5 from a plasmid harbored in a strain in which the yeast OLE1 gene is deleted.
All compound profiling experiments were performed using the same basic protocol. Yeast were cultured using standard techniques in complete synthetic media lacking uracil and containing yeast nitrogen base supplemented with 2% (w/v) glucose (SD-Ura) Starter cultures were inoculated in 3 mL SD-Ura media containing 0.01% tween and 0.2 mM palmitoleic and oleic acid. Cultures were incubated overnight in a 30° C. shaker incubator (225 rpm). Saturated morning cultures were centrifuged, washed in SD-Ura media lacking TWEEN-20 and fatty acids, and then diluted 1:20 in fresh SD-Ura media also lacking TWEEN-20 and fatty acids.
Compound administration was performed in two separate steps. First, 15 μL of SD-Ura was dispensed into clear 384-well assay plates using a MULTIDROP™ Combi reagent dispenser. […] The cultures described above were centrifuged and washed with media lacking TWEEN-20 or oleic and palmitoleic acids.
After yeast delivery, assay plates were incubated under humidified conditions at 30° C. for 40 h. Yeast growth was monitored by reading the OD600 of each well using a microplate reader (Perkin Elmer EnVision™).

Sequence of human SCD1 (O00767 whole entry): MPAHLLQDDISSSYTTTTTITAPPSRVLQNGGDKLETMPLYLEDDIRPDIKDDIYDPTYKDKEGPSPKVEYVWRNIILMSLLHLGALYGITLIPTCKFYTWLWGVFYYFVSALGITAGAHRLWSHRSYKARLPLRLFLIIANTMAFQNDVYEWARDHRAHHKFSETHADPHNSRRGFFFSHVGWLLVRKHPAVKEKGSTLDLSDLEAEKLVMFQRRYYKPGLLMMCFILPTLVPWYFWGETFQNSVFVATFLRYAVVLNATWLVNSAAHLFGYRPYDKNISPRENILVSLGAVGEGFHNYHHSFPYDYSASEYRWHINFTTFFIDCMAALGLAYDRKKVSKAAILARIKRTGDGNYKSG
Sequence of human SCD5 (Q86SK9 whole entry): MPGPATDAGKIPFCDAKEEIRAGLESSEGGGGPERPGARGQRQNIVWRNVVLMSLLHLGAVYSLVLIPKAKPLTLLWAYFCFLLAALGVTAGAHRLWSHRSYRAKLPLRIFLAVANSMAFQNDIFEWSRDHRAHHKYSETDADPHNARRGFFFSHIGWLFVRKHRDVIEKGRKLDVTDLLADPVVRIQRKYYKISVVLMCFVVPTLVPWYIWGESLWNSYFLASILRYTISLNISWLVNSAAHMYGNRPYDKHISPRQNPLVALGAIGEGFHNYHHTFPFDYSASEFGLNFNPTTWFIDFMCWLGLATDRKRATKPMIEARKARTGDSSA

Row | IC50 [1] [µM] | IC50 [2] [µM] | Structure (SMILES)
1 | > 45 | > 45 | CNC(=O)c1ccc(-c2cc(C(=O)N3CC(Cc4ccccc4)C3)no2)cc1 [Compound 230]
2 | > 45 | > 45 | COc1ccccc1-c1cc(C(=O)N2CCC(c3ccccc3)CC2)no1 [Compound 320]
3 | > 45 | > 45 | CNC(=O)c1cccc(-c2cc(C(=O)N3CCC(c4ccccc4)CC3)no2)c1 [Compound 303]
4 | > 45 | 2.92 | O=C(c1cc(-c2ccc3c(c2)OCO3)on1)N1CCC1c1cccc(F)c1 (centres unmarked) [Compound 220, [5-(1,3-benzodioxol-5-yl)isoxazol-3-yl]-[2-(3-fluorophenyl)azetidin-1-yl]methanone]
5 | > 45 | 39.2 | Cc1nn(C)c2cc(-c3cc(CN4C(=O)OCC4c4ccccc4)no3)ccc12 (centres unmarked) [Compound 273]
6 | > 45 | > 45 | O=C(c1cc(-c2ccc3c(c2)OCO3)on1)N1C[C@@H](O)C[C@H]1c1ccccc1 [Compound 421]
7 | > 45 | 1.13 | O=C(c1cc(-c2ccc3c(c2)OCO3)on1)N1CC(Cc2ccccc2)C1 [Compound 216, [5-(1,3-benzodioxol-5-yl)isoxazol-3-yl]-(3-benzylazetidin-1-yl)methanone]
8 | > 45 | > 45 | O=C(Nc1cnn(Cc2ccccc2Cl)c1)c1cc(-c2cccc3cnn(C4COC4)c23)on1 [Compound 93]
9 | 30 | > 45 | O=C(c1cc(-c2ccc3c(c2)OCO3)on1)N1CC(O)C[C@H]1c1ccccc1 (some centres unmarked) [Compound 414]
10 | > 45 | > 45 | Cn1nccc1C1CCCN1C(=O)c1cc(-c2ccc3c(c2)OCO3)on1 (centres unmarked) [Compound 417]
11 | > 45 | > 45 | O=C(Nc1cnn(Cc2ccccc2Cl)c1)c1cc(-c2cccc3c2cnn3C2COC2)on1 [Compound 94]
12 | > 45 | > 45 | N#Cc1ccc(F)cc1Cn1cc(NC(=O)c2cc(-c3ccccc3)on2)cn1 [Compound 88]
13 | > 45 | 6.42 | O=C(Nc1cnn(CCCC(F)(F)F)c1)c1cc(-c2ccco2)on1 [Compound 34, 5-(2-furyl)-N-[1-(4,4,4-trifluorobutyl)pyrazol-4-yl]isoxazole-3-carboxamide]
14 | > 45 | > 45 | Cc1nnc(-c2cc(C(=O)Nc3cnn(Cc4cccc(F)c4)c3)no2)s1 [Compound 175]
15 | 4.52 | 1.62 | O=C(c1cc(-c2ccccc2)on1)N1CC(c2ccccc2)C1 [Compound 212, (3-phenylazetidin-1-yl)-(5-phenylisoxazol-3-yl)methanone]
16 | 0.07 | > 45 | O=C(Nc1cnn(Cc2cccc(F)c2)c1)c1cc(-c2ccccc2)on1 [Compound 53]
17 | > 45 | > 45 | O=C(Nc1cnn(Cc2ccccc2Cl)c1)c1cc(-c2cccc3cn(C4COC4)nc23)on1 [Compound 92]
18 | > 45 | > 45 | O=C(c1cc(-c2ccc3c(c2)OCO3)on1)N1CCCc2ccccc21 [Compound 261]
19 | 6.22 | 2.92 | O=C(c1cc(-c2ccc3c(c2)OCO3)on1)N1CCC(Oc2ccccc2)CC1 [Compound 298, [5-(1,3-benzodioxol-5-yl)isoxazol-3-yl]-(4-phenoxy-1-piperidyl)methanone]
20 | > 45 | > 45 | Cc1cnoc1C1CCCN1C(=O)c1cc(-c2ccc3c(c2)OCO3)on1 (centres unmarked) [Compound 439]
21 | 22.6 | > 45 | O=C(Nc1cnn(Cc2cccc(F)c2)c1)c1cc(-c2ncccn2)on1 [Compound 46]
22 | > 45 | > 45 | O=C(c1cc(-c2ccc3c(c2)OCO3)on1)N1CCCC1c1ccccn1 (centres unmarked) [Compound 361]
23 | 40 | > 45 | O=C(c1cc(-c2ccn3ncnc3c2)on1)N1CCC[C@H]1c1ccccc1 [Compound 432]
24 | > 45 | > 45 | CC(C)c1cc(C(=O)N2CCC(c3ccccc3)C2)no1 (centres unmarked) [Compound 349]
25 | > 45 | > 45 | O=C(c1cc(-c2ccc3c(c2)OCO3)on1)N1CCN(c2ccc(F)cc2)CC1 [Compound 279]
26 | > 45 | > 45 | Cc1ncc(-c2cc(C(=O)Nc3cnn(Cc4ccccc4)c3)no2)s1 [Compound 133]
27 | 0.321 | 3.14 | O=C(c1cc(-c2ccncn2)on1)N1CC(c2ccccc2)C1 [Compound 257, (3-phenylazetidin-1-yl)(5-(pyrimidin-4-yl)isoxazol-3-yl)methanone]

Row | IC50 [1] [µM] | IC50 [2] [µM] | Structure (SMILES)
28 | > 45 | 8.68 | O=C(c1cc(-c2ccc3c(c2)OCO3)on1)N1CCN(c2cc(F)ccc2Cl)CC1 [Compound 299, [5-(1,3-benzodioxol-5-yl)isoxazol-3-yl]-[4-(2-chloro-5-fluoro-phenyl)piperazin-1-yl]methanone]
29 | 9 | 7 | C=C(C)c1cc(C(=O)Nc2cnn(Cc3ccccc3)c2)on1 [Compound 153]
30 | > 45 | > 45 | O=C(c1cc(-c2ccccc2)on1)N1CCC(c2ccccc2F)C1 (centres unmarked) [Compound 335]
31 | > 45 | > 45 | COc1ccc(C2CCCN2C(=O)c2cc(-c3ccc(F)c(F)c3)on2)cc1 (centres unmarked) [Compound 378]
32 | > 45 | 15.7 | CN(Cc1cccc(F)c1)C(=O)c1cc(-c2ccccc2)on1 [Compound 9]
33 | > 45 | > 45 | Cc1nn(C)c2cc(-c3cc(C(=O)N4CCCC4c4ccnnc4)no3)ccc12 (centres unmarked) [Compound 458]
34 | 37.2 | > 45 | O=C(c1cc(-c2ccc(=O)[nH]c2)on1)N1CCC[C@H]1c1ccccc1 [Compound 451]
35 | > 45 | > 45 | O=C(Nc1cnn(Cc2ccccc2)c1)c1cc(-c2cccc(F)c2)on1 [Compound 144]
36 | > 45 | > 45 | CN(C)CC(c1ccccc1)n1cc(NC(=O)c2cc(-c3ccccc3)on2)cn1 (centres unmarked) [Compound 113]
37 | > 45 | > 45 | O=C(Nc1cnn(-c2ccccc2)c1)c1cc(-c2ccco2)on1 [Compound 33]
38 | > 45 | > 45 | O=C(Nc1cnn(Cc2ccccc2)c1)c1cc(-c2cccc3cn(C4COC4)nc23)on1 [Compound 95]
39 | 0.048 | 1.9 | C=Cc1cc(C(=O)Nc2cnn(Cc3cccc(F)c3)c2)no1 [Compound 106, N-(1-(3-fluorobenzyl)-1H-pyrazol-4-yl)-5-vinylisoxazole-3-carboxamide]
40 | > 45 | > 45 | Cn1nc(Cc2ccc(Cl)c(Cl)c2)cc1NC(=O)c1cc(-c2ccco2)on1 [Compound 27]
41 | > 45 | > 45 | O=C(c1cc(-c2ccccc2)on1)N1CC2(C1)CN(c1ccccc1)C2 [Compound 209]
42 | > 45 | > 45 | O=C(Nc1ccnc(Oc2ccccc2)c1)c1cc(-c2ccccc2)on1 [Compound 312]
43 | 15.5 | 5.08 | O=C(c1cc(-c2cccnc2)on1)N1CC(c2ccccc2)C1 [Compound 234, (3-phenylazetidin-1-yl)(5-(pyridin-3-yl)isoxazol-3-yl)methanone, trifluoroacetic acid]
44 | > 45 | > 45 | O=C(Nc1cnn(Cc2ccccc2)c1)c1cc(-c2ccccc2Cl)on1 [Compound 141]
45 | > 45 | > 45 | CSCC(c1ccccc1)n1cc(NC(=O)c2cc(-c3ccccc3)on2)cn1 (centres unmarked) [Compound 73]
46 | 3.33 | 1.55 | COc1ccc(-c2cc(C(=O)N3CC(c4cccc(F)c4)C3)no2)cc1OC [Compound 236]
47 | > 45 | > 45 | O=C(c1cc(-c2ccc3c(c2)OCO3)on1)N1CCCC1c1ncccc1Br (centres unmarked) [Compound 447]
48 | > 45 | > 45 | COc1ccc(Cn2cc(NC(=O)c3cc(-c4ccccc4)on3)cn2)cc1 [Compound 109]
49 | > 45 | 30 | COc1cc(F)ccc1C1CCCN1C(=O)c1cc(-c2ccc3c(c2)OCO3)on1 (centres unmarked) [Compound 430]
50 | > 45 | > 45 | O=C(c1cc(-c2ccccc2)on1)N1CCN(c2ccc(F)cc2)CC1 [Compound 283]
51 | > 45 | > 45 | O=C(c1cc(-c2ccc3c(c2)OCO3)on1)N1CCN(c2cccc(F)c2)CC1 [Compound 282]
52 | > 45 | > 45 | O=C(c1cc(-c2ccco2)on1)N(Cc1ccc(Cl)cc1)c1cnn(Cc2ccc(Cl)cc2)c1 [Compound 32]
53 | > 45 | > 45 | CC(C)(C)OC(=O)n1cc(NC(=O)c2cc(-c3ccco3)on2)cn1 [Compound 12]

Row | Structure (SMILES) | IC50 [1] [µM] | IC50 [2] [µM]
54 | O=C(c1cc(-c2ccccc2)on1)N1CCC2(CCNC2)C1 (centres unmarked) [Compound 340] | > 45 | > 45
55 | O=C(c1cc(-c2ccc3c(c2)OCO3)on1)N1CCC(c2ccccc2)CC1 [Compound 275, [5-(1,3-benzodioxol-5-yl)isoxazol-3-yl]-(4-phenyl-1-piperidyl)methanone] | > 45 | 1.13
